The values that follow come from ChEMBL document CHEMBL1159223, “4-Dehydroecdysterone, a new ecdysteroid from the zoanthid Parazoanthus sp” (J Nat Prod, 1995).

Active and inactive are the calls of the source. The rule behind the calls is not given here.

This experiment concerns Candida albicans. Nature of the experiment: Antifungal activity against Candida albicans. The experiment is classed as functional, organism-based.
For `CNc1nc2c(C)ccc3nc(N(C)C)[nH]c3c-2n1`, the result was inactive.

For `CC(C)CC[C@H](O)[C@](C)(O)[C@H]1CC[C@@]2(O)C3=CC(=O)[C@@H]4C[C@@H](O)[C@@H](O)C[C@]4(C)[C@H]3[C@H](O)C[C@]12C`, the outcome was inactive.

Regarding `CC(C)(O)CC[C@@H](O)[C@](C)(O)[C@H]1CC[C@@]2(O)C3=CC(=O)[C@@H]4C[C@@H](O)[C@@H](O)C[C@]4(C)[C@H]3CC[C@]12C`, the result was inactive.

In the case of `CC(C)(O)CC[C@H](O)[C@](C)(O)[C@H]1CC[C@@]2(O)C3=CC(=O)C4=C[C@@H](O)[C@@H](O)C[C@]4(C)[C@H]3CC[C@]12C`, the outcome was inactive.
